From patent US9822124B2, “Bicyclic heteroaromatic carboxamide compounds useful as Pim kinase inhibitors” (Incyte Corporation, priority 2014, dated 2017)
One block for each compound: values may come before it.

Key:
Format in all cases: biochemical
Pim-2 = Pim-2 (Homo sapiens (Human), UniProt Q9P1W9); test: Pim-2 kinase assay (TR-FRET, Fluorescein-labeled CREBtide peptide substrate); details: 1 mM ATP; read-out: Pim2 IC50
Outline: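 Human Pim-2 (1 nM) phosphorylated 0.05 μM fluorescein-CREBtide with 1 mM ATP for 2 h at 25 °C in Tris buffer pH 7.5 containing MgCl2, DTT, BSA and Tween-20. Reactions were stopped with EDTA and Tb-anti-pSer133 antibody was added, and TR-FRET was read after 30 min.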

Pim-3 = Pim-3 (Homo sapiens (Human), UniProt Q86V86); test: Pim-3 kinase assay (AlphaScreen, Biotin-labeled BAD peptide substrate); details: 1 mM ATP; read-out: Pim3 IC50
Outline: (§1)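 Kinase reactions ran 1 h at 25° C, pH 7.5, with 0.05 μM biotin-BAD peptide, 1 mM ATP, and 2.5 μM Pim-1 or 1.25 μM Pim-3. EDTA stop buffer carried anti-phospho-Bad (Ser112) antibody plus streptavidin donor and Protein-A acceptor beads. AlphaScreen signal was read after 1 h in the dark.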

Pim-1 = Pim-1 (Homo sapiens (Human), UniProt P11309); test: Pim-1 kinase assay (AlphaScreen, Biotin-labeled BAD peptide substrate); details: 1 mM ATP; read-out: Pim1 IC50
Outline: as §1

Chain of Pim-2 (Q9P1W9 whole entry): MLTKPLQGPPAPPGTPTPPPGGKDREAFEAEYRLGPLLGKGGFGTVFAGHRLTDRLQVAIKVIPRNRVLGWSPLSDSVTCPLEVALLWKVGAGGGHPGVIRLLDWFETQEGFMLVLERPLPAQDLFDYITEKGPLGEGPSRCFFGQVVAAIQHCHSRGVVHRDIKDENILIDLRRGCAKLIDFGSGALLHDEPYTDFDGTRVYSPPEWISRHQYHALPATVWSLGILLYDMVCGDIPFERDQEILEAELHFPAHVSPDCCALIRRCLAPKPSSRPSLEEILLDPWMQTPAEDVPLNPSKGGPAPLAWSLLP
Chain of Pim-1 (P11309 whole entry): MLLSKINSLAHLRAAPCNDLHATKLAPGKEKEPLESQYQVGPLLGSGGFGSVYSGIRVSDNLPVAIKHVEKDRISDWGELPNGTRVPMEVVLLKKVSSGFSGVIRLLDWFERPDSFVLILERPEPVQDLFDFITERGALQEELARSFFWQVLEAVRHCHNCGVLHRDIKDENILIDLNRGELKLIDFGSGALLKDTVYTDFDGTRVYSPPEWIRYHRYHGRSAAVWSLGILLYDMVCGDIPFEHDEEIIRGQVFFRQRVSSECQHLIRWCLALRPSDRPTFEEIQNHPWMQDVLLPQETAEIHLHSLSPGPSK

SMILES: C[C@@H]1C[C@H](N)CN(c2ccncc2NC(=O)c2ccc3occ(-c4cc(F)nc(F)c4)c3n2)C1 [Example 27, N-(4-((3S,5R)-3-Amino-5-methylpiperidin-1-yl)pyridin-3-yl)-3-(2,6-difluoropyridin-4-yl)furo[3,2-b]pyridine-5-carboxamide]
IC50 (Pim-2): > 2000 nM
IC50 (Pim-3): > 40 nM
IC50 (Pim-1): 10 to 50 nM

IC50 (Pim-2): ≤ 100 nM
IC50 (Pim-3): ≤ 10 nM
IC50 (Pim-1): ≤ 10 nM
SMILES: C[C@@H]1C[C@H](N)CN(c2ccncc2NC(=O)c2ccc3cc([C@@H]4C[C@@H]4C)oc3n2)C1 (racemic) [Example 75, N-{4-[(3S,5R)-3-Amino-5-methylpiperidin-1-yl]pyridin-3-yl}-2-(cis-2-methylcyclopropyl)furo[2,3-b]pyridine-6-carboxamide]

SMILES: COc1ccc(F)c(-c2coc3ccc(C(=O)Nc4cnccc4N4C[C@@H](N)[C@H](O)[C@@H](C)C4)nc23)c1F [Example 13, N-(4-((3R,4R,5S)-3-Amino-4-hydroxy-5-methylpiperidin-1-yl)pyridin-3-yl)-3-(2,6-difluoro-3-methoxyphenyl)furo[3,2-b]pyridine-5-carboxamide]
IC50 (Pim-2): 100 to 1000 nM
IC50 (Pim-3): ≤ 10 nM
IC50 (Pim-1): ≤ 10 nM

SMILES: C[C@@H]1C[C@H](N)CN(c2ccncc2NC(=O)c2ccc3scc(C4CC4)c3n2)C1 [Example 65, N-(4-((3S,5R)-3-Amino-5-methylpiperidin-1-yl)pyridin-3-yl)-3-cyclopropylthieno[3,2-b]pyridine-5-carboxamide]
IC50 (Pim-2): ≤ 100 nM
IC50 (Pim-3): ≤ 10 nM
IC50 (Pim-1): ≤ 10 nM

SMILES: CCCc1cc2nc(C(=O)Nc3cnccc3N3C[C@@H](N)[C@H](O)[C@@H](C)C3)ccc2s1 [Example 38, N-(4-((3R,4R,5S)-3-Amino-4-hydroxy-5-methylpiperidin-1-yl)pyridin-3-yl)-2-propylthieno[3,2-b]pyridine-5-carboxamide]
IC50 (Pim-2): 100 to 1000 nM
IC50 (Pim-3): ≤ 10 nM
IC50 (Pim-1): ≤ 10 nM

IC50 (Pim-2): ≤ 100 nM
IC50 (Pim-3): ≤ 10 nM
IC50 (Pim-1): ≤ 10 nM
SMILES: C[C@@H]1C[C@H]1c1cc2ccc(C(=O)Nc3cnccc3N3C[C@@H](N)[C@H](O)[C@@H](C)C3)nc2o1 (racemic) [Example 74, N-{4-[(3R,4R,5S)-3-Amino-4-hydroxy-5-methylpiperidin-1-yl]pyridin-3-yl}-2-(trans-2-methylcyclopropyl)furo[2,3-b]pyridine-6-carboxamide]

SMILES: C[C@H]1CN(c2ccncc2NC(=O)c2ccc3oc(-c4c(F)cccc4F)cc3n2)C[C@@H](N)[C@@H]1O [Example 8, N-(4-((3R,4R,5S)-3-Amino-4-hydroxy-5-methylpiperidin-1-yl)pyridin-3-yl)-2-(2,6-difluorophenyl)furo[3,2-b]pyridine-5-carboxamide]
IC50 (Pim-2): > 2000 nM
IC50 (Pim-3): 10 to 50 nM
IC50 (Pim-1): ≤ 10 nM

SMILES: C[C@@H]1C[C@H](N)CN(c2ccncc2NC(=O)c2ccc3occ(C4CCOCC4)c3n2)C1 [Example 25, N-(4-((3S,5R)-3-Amino-5-methylpiperidin-1-yl)pyridin-3-yl)-3-(tetrahydro-2H-pyran-4-yl)furo[3,2-b]pyridine-5-carboxamide]
IC50 (Pim-2): 100 to 1000 nM
IC50 (Pim-3): ≤ 10 nM
IC50 (Pim-1): ≤ 10 nM

SMILES: COc1ccc(-c2cc3nc(C(=O)Nc4cnccc4N4C[C@H](C)C[C@H](N)C4)ccc3o2)cn1 [Example 3, N-(4-((3S,5R)-3-Amino-5-methylpiperidin-1-yl)pyridin-3-yl)-2-(6-methoxypyridin-3-yl)furo[3,2-b]pyridine-5-carboxamide]
IC50 (Pim-2): > 2000 nM
IC50 (Pim-3): ≤ 10 nM
IC50 (Pim-1): ≤ 10 nM

SMILES: C[C@@H]1C[C@H](N)CN(c2ccncc2NC(=O)c2ccc3oc(-c4c(F)cccc4F)cc3n2)C1 [Example 4, N-(4-((3S,5R)-3-Amino-5-methylpiperidin-1-yl)pyridin-3-yl)-2-(2,6-difluorophenyl)furo[3,2-b]pyridine-5-carboxamide]
IC50 (Pim-2): > 2000 nM
IC50 (Pim-3): 10 to 50 nM
IC50 (Pim-1): ≤ 10 nM

SMILES: C[C@@H]1C[C@H](N)CN(c2ccncc2NC(=O)c2ccc3occ(C4CCN(C)CC4)c3n2)C1 [Example 24, N-(4-((3S,5R)-3-Amino-5-methylpiperidin-1-yl)pyridin-3-yl)-3-(1-methylpiperidin-4-yl)furo[3,2-b]pyridine-5-carboxamide]
IC50 (Pim-2): > 2000 nM
IC50 (Pim-3): > 40 nM
IC50 (Pim-1): ≤ 10 nM

SMILES: C[C@H]1CN(c2ccncc2NC(=O)c2ccc3occ(-c4c(F)cccc4F)c3n2)C[C@@H](N)[C@@H]1O [Example 11, N-(4-((3R,4R,5S)-3-Amino-4-hydroxy-5-methylpiperidin-1-yl)pyridin-3-yl)-3-(2,6-difluorophenyl)furo[3,2-b]pyridine-5-carboxamide]
IC50 (Pim-2): ≤ 100 nM
IC50 (Pim-3): ≤ 10 nM
IC50 (Pim-1): ≤ 10 nM

SMILES: C[C@@H]1C[C@H](N)CN(c2ccncc2NC(=O)c2ccc3occ(C4CC4)c3n2)C1 [Example 35, N-(4-((3S,5R)-3-Amino-5-methylpiperidin-1-yl)pyridin-3-yl)-3-cyclopropylfuro[3,2-b]pyridine-5-carboxamide]
IC50 (Pim-2): ≤ 100 nM
IC50 (Pim-3): ≤ 10 nM
IC50 (Pim-1): ≤ 10 nM

SMILES: C[C@H]1CN(c2ccncc2NC(=O)c2ccc3sc(-c4ccccc4F)cc3n2)C[C@@H](N)[C@@H]1O [Example 41, N-(4-((3R,4R,5S)-3-Amino-4-hydroxy-5-methylpiperidin-1-yl)pyridin-3-yl)-2-(2-fluorophenyl)thieno[3,2-b]pyridine-5-carboxamide]
IC50 (Pim-2): 100 to 1000 nM
IC50 (Pim-3): ≤ 10 nM
IC50 (Pim-1): ≤ 10 nM

SMILES: C[C@@H]1C[C@H](N)CN(c2ccncc2NC(=O)c2ccc3occ(-c4cnoc4)c3n2)C1 [Example 28, N-(4-((3S,5R)-3-Amino-5-methylpiperidin-1-yl)pyridin-3-yl)-3-(isoxazol-4-yl)furo[3,2-b]pyridine-5-carboxamide]
IC50 (Pim-2): > 2000 nM
IC50 (Pim-3): 10 to 50 nM
IC50 (Pim-1): ≤ 10 nM

SMILES: C[C@@H]1C[C@H](N)CN(c2ccncc2NC(=O)c2ccc3ccn(C4CCC4)c3n2)C1 [Example 78, N-{4-[(3S,5R)-3-Amino-5-methylpiperidin-1-yl]pyridin-3-yl}-1-cyclobutyl-1H-pyrrolo[2,3-b]pyridine-6-carboxamide]
IC50 (Pim-2): 100 to 1000 nM
IC50 (Pim-3): ≤ 10 nM
IC50 (Pim-1): ≤ 10 nM
